Data reported in patent US8268961B2, “Antibacterial peptides and analogues thereof” (Universita Degli Studi di Siena, priority 2004, dated 2012).
Entries after “also recorded” stand apart in the source; their conditions may differ. Positions of bridges follow the written chain, without caps; N, C: chain ends. Chains are numbered I, II in the order given. No end group written: not given here.

Tests used:
[1] = test system: E. coli plasmid vector pCEP4 DNA; assay: DNA binding assay (gel retardation)
Method: In an attempt to clarify the molecular mechanism of action, the authors examined the binding properties on DNA exerted by M6 dendrimeric peptide and magainin 2, an antimicrobial peptide which has a pore-forming activity on the cell membrane. The DNA binding abilities of M6 and magainin 2 were examined by analyzing the electrophoretic mobility of DNA bands at the various weight ratios of peptides to DNA on a 1% (w/v) agarose gel.
Gel-retardation experiments were performed by mixing 200 ng of the E. coli plasmid vector pCEP4 (Invitrogen) with increasing amounts of M6 peptide in 20 μl of binding buffer (5% glycerol, 10 mM Tris-HCl (pH 8.0), 1 mM EDTA, 1 mM DTT, 20 mM KCl and 50 μg/ml BSA). The reaction mixtures were incubated at room temperature for 1 h. Subsequently, 4 μl of native loading buffer was added (40% saccarose, 0.25% bromophenol blue) and an aliquot of 12 μl was applied to a 1% agarose gel electrophoresis in 1 mM Tris borate-EDTA buffer.

E. coli strain TG1 = assay: Test of antibacterial activity (colony growth inhibition) on E. coli strain TG1; type: cell-based; conditions: E. coli TG1, colony counting vs control without peptide
Summary of the method: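 E. coli TG1 (OD600 0.2) was incubated 75 min at 37 °C with peptide in PBS at 0.12–2 mg/ml. Cells were then diluted 1:1000, plated on 2×TY agar and grown overnight at 30 °C, and colonies were counted against an untreated control.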

[2] = test system: murine macrophage cells J774 A.1; assay: Cytotoxicity test by MTT; type: cell-based, mouse
Method: The cytotoxicity of antibacterial MAP peptides was evaluated on different eukaryotic cell lines by a colorimetric assay (MTT). This assay measures the cells' ability to convert a soluble tetrazolium salt into an insoluble precipitate: formazan. The cytotoxicity of M1 was evaluated on murine macrophagic cells (J774 A.1), murine myeloma cells (SPO) and Chinese hamster ovary epithelium cells (CHO K1). As shown FIG. 4, even at high concentrations (1 mg/ml) M1 cytotoxicity on CHO K1 cells and on SPO cells is low (percent survival is 80-90%).
For cytotoxicity tests, different cell lines were used: murine myeloma cells SPO, hamster ovary epithelium cells CHO K 1, murine macrophage cells J774 A.1 and human keratinocytes HaCaT. The cells were plated in medium in RPMI 1640 (SPO and CHO K 1) and DMEM (J774 A.1 and HaCaT) with antibiotics and bovine foetal serum at 10%, in 96-well plates at the concentration of 6×10^4 (SPO, CHO K1 and J774 A.1) and 3×10^4 (HaCaT). Peptides, previously filtered with a 0.2 μm filter disk (Whatman), were added at various concentrations to the different cell lines and left in incubation over night at 37° C. Cell viability was determined adding the MTT tetrazolium salt at the concentration of 0.5 mg/ml and incubating for 90 min. The cells were solubilised with a solution at pH 4.5 containing SDS 10% and dimethylformamide 45% and read at the dual wavelength of 595/650 nm with a plate reader.

[3] = LPS binding by Plasmon Surface Resonance (Biacore); conditions: M6 immobilised on BIACORE sensorchip
Method: FIG. 11. Binding analysis between MAP M6 peptide and LPS in BIACORE. […] On the y-axis are shown the Units of Response derived from the binding between LPS and M6 as a function of time expressed in seconds (on the x-axis)
The ability of MAP peptides to perforate the bacterial membrane was evaluated measuring the activity of cytoplasmatic beta-galactosidase (24) in surpernatants of E. coli strain ML-35 incubated with the peptide and using p-nitrophenyl-β-D-galactopyranoside (pNPG) as a substrate. pNPG is digested by beta-galactosidase, therefore releasing p-nitro-phenolate detectable by spectrophotometric reading at 420 nm (FIG. 10). […] The activity of dendrimeric peptides against the inner membrane was evaluated at concentrations of 16, 32 and 64 μg/ml. All dendrimeric peptides permeabilized bacterial inner membrane at 16 μg/ml (FIG. 9). Permeabilization occurred after a lag of less than 1 minute, and the rate of permeabilization depended on peptide concentration (not shown). Moreover, the ability of the M6 MAP peptide to bind the bacterial lipopolysaccharide (LPS) was assayed by Plasmon Surface Resonance in a Biacore 1000 instrument (FIG. 11) using a protocol perfected by the authors (26).

[4] = Stability to plasmatic protease (HPLC); type: in vitro ADME, human
Summary of the method: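 Linear and MAP peptides (10 mM in H2O) incubated with human plasma and serum at 37° C. for 2 and 24 hours. Reaction stopped with methanol; supernatant analysed by reverse-phase C18 HPLC (20-95% TFA/methanol gradient, 30 min) for undigested peptide.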

## I: QKKIRVRLSAKKA-OH / II: QKKIRVRLSAK / III: QKKIRVRLSA / IV: QKKIRVRLSA (amide I:11-IV:C, I:12-II:C, II:11-III:C) [M6, QKKIRVRLSA]
[1]; 200 ng pCEP4, 1% agarose gel, 1 h room temperature
  Weight ratio of peptide to DNA at which migration of DNA is inhibited: > 0.2
[1]; from gel retardation weight ratios
  DNA binding tightness relative to magainin 2: over 25 times
E. coli strain TG1
  Antibacterial activity on E. coli TG1 colony growth: good antibacterial activity
[2]
  Concentration at and over which a drop in cell viability was evident (MTT): ≥ 125 µg/mL
  Vitality of J774 A.1 cells as the concentration of MAP peptides increases (MTT): decreases
[3]
  Binding to bacterial lipopolysaccharide (LPS), sensorgram: effectively binds; also recorded: rapid binding
[4]
  Resistance to plasmatic protease: Plasma 2 h: +
  Resistance to plasmatic protease: Plasma 24 h: +
